Active and inactive are the calls of the source. No cut-off for these calls is given here.
What was measured:
[1] = test system: ASPC1; test: Antiproliferative activity against human ASPC1 cells harboring […] assessed as inhibition of cell growth incubated for 5 days by crystal violet staining analysis; type: functional, cell-based; details: Homo sapiens, ASPC1, 120 h
[2] = test system: AGS; test: Antiproliferative activity against human AGS cells harboring […] assessed as inhibition of cell growth incubated for 5 days by crystal violet staining analysis; type: functional, cell-based; details: Homo sapiens, AGS, 120 h
[3] = test system: A549; test: Antiproliferative activity against human A549 cells harboring […] assessed as inhibition of cell growth incubated for 5 days by crystal violet staining analysis; type: functional, cell-based; details: Homo sapiens, A549, 120 h
[4] = test system: NCI-H1299; test: Antiproliferative activity against human NCI-H1299 cells harboring KRAS wild type assessed as inhibition of cell growth incubated for 5 days by crystal violet staining analysis; type: functional, cell-based; details: NCI-H1299, 120 h
[5] = Inhibition of recombinant human His6-tagged KRAS4B G12D mutant incubated for 1 hr by HTRF assay
[6] = biological target: T1, GTPase KRas (Homo sapiens, UniProt P01116); test: Inhibition of recombinant human GTP-bound KRAS wild type (1 to 169 residues) incubated for 1 hr by HTRF assay
[7] = Half life in Sprague-Dawley rat at 1 mg/kg,iv measured upto 24 hrs by LC-MS/MS analysis; type: ADME, organism-based; details: in vivo
[8] = AUC in Sprague-Dawley rat at 1 mg/kg,iv measured upto 24 hrs by LC-MS/MS analysis; type: ADME, organism-based; design: dose 1 mg/kg, time < 24 hrs, route iv; details: in vivo
[9] = Clearance in Sprague-Dawley rat at 1 mg/kg,iv measured upto 24 hrs by LC-MS/MS analysis; type: ADME, organism-based; details: in vivo
[10] = Metabolic stability in rat liver microsomes assessed as half life at 150 uM measured after 60 mins in presence of NADPH by LC-MS/MS analysis; type: ADME, Microsome
[11] = Metabolic stability in monkey liver microsomes assessed as half life at 150 uM measured after 60 mins in presence of NADPH by LC-MS/MS analysis; type: ADME, Macaca mulatta, Microsome; details: rhesus monkey
[12] = Metabolic stability in dog liver microsomes assessed as half life at 150 uM measured after 60 mins in presence of NADPH by LC-MS/MS analysis; type: ADME, Canis lupus familiaris, Microsome
[13] = Metabolic stability in rat liver microsomes assessed as intrinsic clearance at 150 uM measured after 60 mins in presence of NADPH by LC-MS/MS analysis; type: ADME, Microsome; details: read-out: CLH
[14] = Metabolic stability in monkey liver microsomes assessed as intrinsic clearance at 150 uM measured after 60 mins in presence of NADPH by LC-MS/MS analysis; type: ADME, Macaca mulatta, Microsome; details: rhesus monkey, read-out: CLH
[15] = Metabolic stability in dog liver microsomes assessed as intrinsic clearance at 150 uM measured after 60 mins in presence of NADPH by LC-MS/MS analysis; type: ADME, Canis lupus familiaris, Microsome; details: read-out: CLH
[16] = test system: ASPC1; test: Induction of apoptosis in human ASPC1 cells harboring […] assessed as early apoptotic cells at 25 uM incubated for 24 hrs by annexin V and propidium iodide staining based flow cytometry analysis (reference value: 5.22%); type: functional
[17] = test system: ASPC1; test: Induction of apoptosis in human ASPC1 cells harboring […] assessed as late apoptotic cells at 25 uM incubated for 24 hrs by annexin V and propidium iodide staining based flow cytometry analysis (reference value: 6.96%); type: functional
[18] = test system: AGS; test: Induction of apoptosis in human AGS cells harboring […] assessed as early apoptotic cells at 25 uM incubated for 24 hrs by annexin V and propidium iodide staining based flow cytometry analysis (reference value: 4.05%); type: functional
[19] = test system: AGS; test: Induction of apoptosis in human AGS cells harboring […] assessed as late apoptotic cells at 25 uM incubated for 24 hrs by annexin V and propidium iodide staining based flow cytometry analysis (reference value: 7.74%); type: functional
[20] = test system: ASPC1; test: Antitumor activity against human ASPC1 cells xenografted in mouse assessed as inhibition of tumor growth at 20 mg/kg,ip administrated twice daily for 20 consecutive days relative to control; type: functional; details: read-out: TGI
[21] = Toxicity in mouse xenografted with human ASPC1 cells assessed as serum creatinine level at 20 mg/kg,ip administrated twice daily for 20 consecutive days (reference value: 28.2 +/- 2.1 umol/L); type: organism-based; details: in vivo
[22] = Toxicity in mouse xenografted with human ASPC1 cells assessed as serum blood urea nitrogen level at 20 mg/kg,ip administrated twice daily for 20 consecutive days (reference value: 16.3 +/- 1.6 mmol/L); type: organism-based; details: in vivo
[23] = test system: ASPC1; test: Antitumor activity against human ASPC1 cells xenografted in mouse assessed as inhibition of tumor growth at 10 mg/kg,ip administrated twice daily for 20 consecutive days relative to control; type: functional; details: read-out: TGI
[24] = biological target: T1, GTPase KRas; test: Inhibition of KRAS in human ASPC1 cells assessed as downregulation of ERK phosphorylation at 0.65 nM incubated for 3 hrs by immunoblotting analysis; type: cell-based; details: tested as the 2H-labelled form
[25] = biological target: T1, GTPase KRas; test: Inhibition of KRAS in human ASPC1 cells assessed as downregulation of ERK phosphorylation incubated for 3 hrs by immunoblotting analysis; type: cell-based; details: tested as the 2H-labelled form
[26] = biological target: T1, GTPase KRas; test: Inhibition of KRAS in human ASPC1 cells assessed as downregulation of AKT phosphorylation incubated for 3 hrs by immunoblotting analysis; type: cell-based; details: tested as the 2H-labelled form
[27] = biological target: T1, GTPase KRas; test: Inhibition of KRAS in human AGS cells assessed as downregulation of ERK phosphorylation incubated for 3 hrs by immunoblotting analysis; type: cell-based; details: tested as the 2H-labelled form
[28] = biological target: T1, GTPase KRas; test: Inhibition of KRAS in human AGS cells assessed as downregulation of AKT phosphorylation incubated for 3 hrs by immunoblotting analysis; type: cell-based; details: tested as the 2H-labelled form
[29] = biological target: T1, GTPase KRas; test: Inhibition of KRAS in human ASPC1 cells assessed as downregulation of AKT phosphorylation at 0.65 nM incubated for 3 hrs by immunoblotting analysis; type: cell-based; details: tested as the 2H-labelled form
[30] = biological target: T1, GTPase KRas; test: Inhibition of KRAS in human AGS cells assessed as downregulation of ERK phosphorylation at 0.65 nM incubated for 3 hrs by immunoblotting analysis; type: cell-based; details: tested as the 2H-labelled form
[31] = biological target: T1, GTPase KRas; test: Inhibition of KRAS in human AGS cells assessed as downregulation of AKT phosphorylation at 0.65 nM incubated for 3 hrs by immunoblotting analysis; type: cell-based; details: tested as the 2H-labelled form
[32] = biological target: T1, GTPase KRas; test: Inhibition of KRAS in human ASPC1 cells assessed as downregulation of ERK phosphorylation at 6.25 to 100 nM incubated for 3 hrs by immunoblotting analysis; type: cell-based; details: dose 6.25-100 nM, tested as the 2H-labelled form
[33] = test system: ASPC1; test: Antitumor activity against human ASPC1 cells xenografted in mouse assessed as inhibition of ERK phosphorylation level at 10 mg/kg,ip administrated twice daily for 20 consecutive days by immunoblotting analysis; type: functional, organism-based; details: tested as the 2H-labelled form
[34] = test system: ASPC1; test: Antitumor activity against human ASPC1 cells xenografted in mouse assessed as inhibition of ERK phosphorylation level at 20 mg/kg,ip administrated twice daily for 20 consecutive days by immunoblotting analysis; type: functional, organism-based; details: tested as the 2H-labelled form
[35] = test system: ASPC1; test: Antitumor activity against human ASPC1 cells xenografted in mouse assessed as inhibition of AKT phosphorylation level at 10 mg/kg,ip administrated twice daily for 20 consecutive days by immunoblotting analysis; type: functional, organism-based; details: tested as the 2H-labelled form
[36] = test system: ASPC1; test: Antitumor activity against human ASPC1 cells xenografted in mouse assessed as inhibition of AKT phosphorylation level at 20 mg/kg,ip administrated twice daily for 20 consecutive days by immunoblotting analysis; type: functional, organism-based; details: tested as the 2H-labelled form
[37] = test system: ASPC1; test: Antitumor activity against human ASPC1 cells xenografted in mouse assessed as inhibition of Ki-67 expression level at 10 mg/kg,ip administrated twice daily for 20 consecutive days by immunohistochemistry analysis; type: functional, organism-based; details: tested as the 2H-labelled form
[38] = test system: ASPC1; test: Antitumor activity against human ASPC1 cells xenografted in mouse assessed as inhibition of Ki-67 expression level at 20 mg/kg,ip administrated twice daily for 20 consecutive days by immunohistochemistry analysis; type: functional, organism-based; details: tested as the 2H-labelled form

| SMILES | IC50 [1] [nM] | IC50 [2] [nM] | IC50 [3] [nM] | IC50 [4] [nM] | IC50 [5] [nM] | half-life [7] [h] | AUC at 24 h [8] [ng·h/mL] | clearance [9] [mL/min/kg] | inhibition [25] | inhibition [26] | inhibition [27] | inhibition [28] | Activity [33] | Activity [34] | Activity [35] | Activity [36] | Activity [37] | Activity [38] | also measured |
| --- | --- | --- | --- | --- | --- | --- | --- | --- | --- | --- | --- | --- | --- | --- | --- | --- | --- | --- | --- |
| [2H]C([2H])(Oc1nc(N2C[C@H]3CC[C@@H](C2)N3)c2cnc(-c3cccc4ccc(F)c(C#C)c34)c(F)c2n1)C12CCCN1CC(=C(F)F)C2 (some centres undefined) | 23.7 | 22.5 | 1090 | 1410 | 2.21 | – | – | – | – | – | – | – | – | – | – | – | – | – | IC50 [6]: 20.3 nM |
| C#Cc1c(F)ccc2cc(O)cc(-c3ncc4c(N5C[C@H]6CC[C@@H](C5)N6)nc(OC[C@@]56CCCN5C[C@H](F)C6)nc4c3F)c12 | 7.9 | 1.4 | > 5000 | > 5000 | 1.24 | 1.1 | 188 | 91.7 | – | – | – | – | – | – | – | – | – | – | half-life at 150 µM [10]: 2.88 h; half-life at 150 µM [11]: 0.568 h; half-life at 150 µM [12]: 1.38 h; microsomal CLint at 150 µM [13]: 8 µL/min/mg; microsomal CLint at 150 µM [14]: 40.6 µL/min/mg; microsomal CLint at 150 µM [15]: 16.8 µL/min/mg; Activity [16]: 8.65%; Activity [17]: 12.1%; Activity [18]: 9.27%; Activity [19]: 10.4%; inhibition in vivo at 20 mg/kg [20]: 73.3%; Activity [21]: 24.7 µmol/L; Activity [22]: 14 mmol/L |
| [2H]C([2H])(Oc1nc(NCC2(N(C)C)CCC2)c2cnc(-c3cc(O)cc4ccc(F)c(C#C)c34)c(F)c2n1)C12CCCN1CC(=C(F)F)C2 (centres undefined) | 1.7 | 0.6 | 499 | 1820 | 1.21 | 6.91 | 562 | 33.4 | – | – | – | – | – | – | – | – | – | – | IC50 [6]: 18.5 nM; inhibition in vivo at 10 mg/kg [23]: 54.7%; inhibition in vivo at 20 mg/kg [20]: 68.4% |
| [2H]C([2H])(Oc1nc(NCC2(N(C)C)CCC2)c2cnc(-c3cc(N)cc4ccc(F)c(C#C)c34)c(F)c2n1)C12CCCN1CC(=C(F)F)C2 (centres undefined) | 28.4 | 12 | 700 | > 5000 | – | 9.42 | 218 | 81.1 | – | – | – | – | – | – | – | – | – | – | – |
| C#Cc1c(F)ccc2cc(N)cc(-c3ncc4c(N5C[C@H]6CC[C@@H](C5)N6)nc(OCC56CCCN5CC(=C(F)F)C6)nc4c3F)c12 (some centres undefined) | – | – | – | – | – | – | – | – | Dose-Dependent Effect | Dose-Dependent Effect | Dose-Dependent Effect | Dose-Dependent Effect | Active | Active | Active | Active | Active | Active | inhibition [24]: Active; inhibition [29]: Active; inhibition [30]: Active; inhibition [31]: Active; inhibition [32]: > 90% |
| C#Cc1c(F)ccc2cc(O)cc(-c3ncc4c(N5C[C@H]6CC[C@@H](C5)N6)nc(OCC56CCCN5CC(=C(F)F)C6)nc4c3F)c12 (some centres undefined) | – | – | – | – | – | – | – | – | Dose-Dependent Effect | Dose-Dependent Effect | Dose-Dependent Effect | Dose-Dependent Effect | Active | Active | Active | Active | Active | Active | inhibition [24]: Active; inhibition [29]: Active; inhibition [30]: Active; inhibition [31]: Active; inhibition [32]: > 90% |
| C#Cc1c(F)ccc2cc(O)cc(-c3ncc4c(NCC5(N(C)C)CCC5)nc(OCC56CCCN5CC(=C(F)F)C6)nc4c3F)c12 (centres undefined) | – | – | – | – | – | – | – | – | Dose-Dependent Effect | Dose-Dependent Effect | Dose-Dependent Effect | Dose-Dependent Effect | Active | Active | Active | Active | Active | Active | – |
| C#Cc1c(F)ccc2cccc(-c3ncc4c(N5C[C@H]6CC[C@@H](C5)N6)nc(OCC56CCCN5CC(=C(F)F)C6)nc4c3F)c12 (some centres undefined) | – | – | – | – | – | – | – | – | Dose-Dependent Effect | Dose-Dependent Effect | Dose-Dependent Effect | Dose-Dependent Effect | – | – | – | – | – | – | – |
